# Earlier results as cited in patent US20220257614A1, “USE OF 12-LIPOXYGENASE INHIBITORS IN THE TREATMENT OF COVID-19” (New York Medical College, priority 2021, published 2022).
# System: human islets
# Details: in vitro; background statement
smiles,measurement,value
COc1cccc(CNc2ccc(S(=O)(=O)Nc3nc4ccccc4s3)cc2)c1O [ML-355],protection of human islets from inflammatory injury,protect human islets from inflammatory injury
